Results as given in patent US5254577A, “Aminomethyloxooxazolidinyl arylbenzene derivatives useful as antibacterial agents” (The Du Pont Merck Pharmaceutical Company, priority 1992, dated 1993).
Values after ≈ are worked out from the molar mass of the structure shown. Read-outs that look alike come from different tables or passages of the source.

Key:
[1] = tested on: Staphylococcus aureus; assay: In vitro broth microdilution, 24-hour minimal inhibitory concentration (MIC); type: cell-based; conditions: Mueller-Hinton broth; for MIC: read-out: Minimum Inhibitory Concentration
Description: (§1) A standard microdilution method (National Committee for Clinical Standards. Tentative standard M7-T. Standard methods for dilution antimicrobial susceptibility tests for bacteria that grow aerobically. National Committee for Clinical Laboratory Standards, Villanova, Pa. 1982) with Mueller-Hinton broth is used to determine the 24-hour minimal inhibitory concentrations (MIC's) for test strains of Staphylococcus aureus and Escherichia coli.

[2] = tested on: Escherichia coli; assay: as above; type: cell-based; conditions: Mueller-Hinton broth, read-out: Minimum Inhibitory Concentration
Description: as §1

[3] = tested on: Staphylococcus aureus; assay: In vivo activity against Staphylococcus aureus in an acute lethal mouse model; conditions: mice infected intraperitoneally, dosed 1 h and 4 h post-infection, survivors on seventh day
Method: The in vivo potency of these compounds is exemplified by the data summarized in Table X. Determinations of in vivo efficacy are performed by inoculating mice intraperitoneally with cultures of the infecting organism diluted to produce 100% mortality in control animals within twenty-four hours. The culture of S. aureus used to infect the animals was diluted to the required bacterial density using 5% aqueous hog gastric mucin. The compounds are dissolved or suspended in 0.25% aqueous Methocel® (Methocel®: Hydroxypropyl Methylcullulose, E15 Premium, Dow Chemical Company) for oral administration or sterile distilled water containing 5% dimethylsulfoxide (Fisher Scientific Company, Fairlawn, N.J.) for subcutaneous administration. The mice are dosed at one hour and at four hours post-infection. Mortality is recorded daily until test determination seven days post infection. The number of survivors in each treatment group on the seventh day after infection is used in the calculation of the ED50, the dose of compound that protects 50% of the mice (Litchfield,J. T. and Wildoxon. A simulated method for evaluating dose-effect experiments. J. Pharmacol Exp. Ther., 98:99-113, 1949).

[4] = Staphylococcus aureus, 168 h, Oral Administration, read-out: ED50
[5] = Staphylococcus aureus, sc, 168 h, Subcutaneous Administration, read-out: ED50

Compound	MIC [1]	MIC [2]	ED50 [3, 4]	ED50 [3, 5]	Minimum Inhibitory Concentration [1]	ED50 ([3]; Subcutaneous Administration, 10080 min)
CC(=O)NC[C@H]1CN(c2ccc(-c3cnco3)cc2)C(=O)O1 [Example 136]	1 µg/mL (≈ 3.32 µM)	> 128 µg/mL	14.8 mg/kg	51.9 mg/kg		
CC(=O)NC[C@H]1CN(c2ccc(-c3cccc(N(C)C)c3)cc2)C(=O)O1 [Example 74]	8 µg/mL (≈ 22.6 µM)	> 128 µg/mL		17.1 mg/kg		
CC(=O)NC[C@H]1CN(c2ccc(-c3ccc(C(=O)CC(C)(C)C(=O)O)cc3)cc2)C(=O)O1 [Example 10]	0.5 µg/mL (≈ 1.14 µM)	> 128 µg/mL				
CC(=O)NC[C@H]1CN(c2ccc(-c3ccc(C(=O)CCl)cc3)cc2)C(=O)O1 [Example 8]	< 0.13 µg/mL	> 128 µg/mL	> 90 mg/kg	> 90 mg/kg		
CC(=O)NC[C@H]1CN(c2ccc(-c3ccc(C(C)OC(=O)CCC(=O)O)cc3)cc2)C(=O)O1 (stereo partly drawn) [Example 29]	4 µg/mL (≈ 8.8 µM)	> 128 µg/mL	16.1 mg/kg	9.8 mg/kg		
CC(=O)NC[C@H]1CN(c2ccc(-c3ccccc3C)cc2)C(=O)O1 [Example 71]	2 µg/mL (≈ 6.17 µM)	> 128 µg/mL	51.9 mg/kg	> 90 mg/kg		
CCCCNCc1ccc(-c2ccc(N3C[C@H](CNC(C)=O)OC3=O)cc2)cc1 [Example 45]	0.5 µg/mL (≈ 1.26 µM)	> 128 µg/mL		13.9 mg/kg		
CCC(=O)c1ccc(-c2ccc(N3C[C@H](CNC(C)=O)OC3=O)cc2)cc1 [Example 7]	2 µg/mL (≈ 5.46 µM)	> 128 µg/mL		90 mg/kg		
CC(=O)NC[C@H]1CN(c2ccc(-c3ccc(C=O)cc3)cc2)C(=O)O1 [Example 21, (l)-N-[3-(4-(4'-Formylphenyl)phenyl)-2-oxooxazolidin-5-ylmethyl]acetamide]	< 0.13 µg/mL	> 128 µg/mL	44.7 mg/kg	> 90 mg/kg		
CC(=O)NC[C@H]1CN(c2ccc(-c3ccccn3)cc2)C(=O)O1 [Example 86]	2 µg/mL (≈ 6.42 µM)	> 128 µg/mL		15.5 mg/kg		
COc1ccc(-c2ccc(N3C[C@H](CNC(C)=O)OC3=O)cc2)cc1 [Example 75]	< 0.13 µg/mL	> 128 µg/mL				
CC(=O)NC[C@H]1CN(c2ccc(-c3ccc(C(C)=NO)cc3)cc2)C(=O)O1 [Example 22, (l)-N-[3-(4-(4'-(1-Hydroxyiminoethyl)phenyl)phenyl)-2-oxooxazolidin-5-ylmethyl]acetamide]	0.25 µg/mL (≈ 0.68 µM)	> 128 µg/mL	> 90 mg/kg	> 90 mg/kg		
CC(=O)NC[C@H]1CN(c2ccc(-c3ccc(C(C)O)cc3)cc2)C(=O)O1 (single isomer, unassigned) [Example 27, (l)-N-[3-(4-(4'-(1-Hydroxyethyl)phenyl)phenyl)-2-oxooxazolidin-5-ylmethyl]acetamide]	0.5 µg/mL (≈ 1.41 µM)	> 128 µg/mL	6.6 mg/kg	7.6 mg/kg		
CCc1cccc(-c2ccc(N3C[C@H](CNC(C)=O)OC3=O)cc2)c1 [Example 70]	2 µg/mL (≈ 5.91 µM)	> 128 µg/mL	17 mg/kg	10 mg/kg		
CC(=O)NC[C@H]1CN(c2ccc(-c3ccc(OCCN(C)C)cc3)cc2)C(=O)O1 [Example 66, (l)-N-[3-(4-(4'-N,N-Dimethylaminoethyloxyphenyl)phenyl)-2-oxooxazolidin-5-ylmethyl]acetamide]	0.5 µg/mL (≈ 1.26 µM)	> 128 µg/mL				
CC(=O)NC[C@H]1CN(c2ccc(-c3cccnc3)cc2)C(=O)O1 [Example 88]	< 0.13 µg/mL	> 128 µg/mL	1.6 mg/kg	0.5 mg/kg		
CC(=O)NC[C@H]1CN(c2ccc(-c3ccc(C(O)CCN4CCOCC4)cc3)cc2)C(=O)O1 (single isomer, unassigned) [Example 59, (l)-N-[3-(4-(4'-(1-hydroxy-3-(4-morpholinyl)propyl)phenyl)phenyl)-2-oxooxazolidin-5-ylmethyl]acetamide]	2 µg/mL (≈ 4.41 µM)	> 128 µg/mL	7 mg/kg	2.7 mg/kg		

Compound	MIC [1]	MIC [2]	ED50 [3, 4]	ED50 [3, 5]	Minimum Inhibitory Concentration [1]	ED50 ([3]; Subcutaneous Administration, 10080 min)
CC(=O)NC[C@H]1CN(c2ccc(-c3ccc(CN(CCO)CCO)cc3)cc2)C(=O)O1 [Example 50]	0.5 µg/mL (≈ 1.17 µM)	> 128 µg/mL		6.5 mg/kg		
CC(=O)NC[C@H]1CN(c2ccc(-c3ccc(I)cc3)cc2)C(=O)O1 [Example 20, (l)-N-[3-(4-(4'-Iodophenyl)phenyl)-2-oxooxazolidin-5-ylmethyl]acetamide]	8 µg/mL (≈ 18.3 µM)	> 128 µg/mL	> 90 mg/kg	> 90 mg/kg		
CCCCN(CCCC)Cc1ccc(-c2ccc(N3C[C@H](CNC(C)=O)OC3=O)cc2)cc1 [Example 46]	4 µg/mL (≈ 8.86 µM)	> 128 µg/mL		30 mg/kg		
CCN(CC)Cc1ccc(-c2ccc(N3C[C@H](CNC(C)=O)OC3=O)cc2)cc1 [Example 43, (l)-N-[3-(4-(4'-diethylaminomethylphenyl)phenyl)-2-oxooxazolidin-5-ylmethyl]acetamide]	4 µg/mL (≈ 10.1 µM)	> 128 µg/mL	6.4 mg/kg	3.7 mg/kg		
CC(=O)NC[C@H]1CN(c2ccc(-c3cccc(N)c3)cc2)C(=O)O1 [Example 73]	0.5 µg/mL (≈ 1.54 µM)	> 128 µg/mL	11.8 mg/kg	5 mg/kg		
CCCCCCCCN=Cc1ccc(-c2ccc(N3C[C@H](CNC(C)=O)OC3=O)cc2)cc1 [Example 48]	< 0.13 µg/mL	> 128 µg/mL				
CC(=O)NC[C@H]1CN(c2ccc(-c3ccc(C(=O)CCC(=O)O)cc3)cc2)C(=O)O1 [Example 9]	< 0.13 µg/mL	> 128 µg/mL	> 90 mg/kg	16.8 mg/kg		
CC(=O)NC[C@H]1CN(c2ccc(-c3cncc4ccccc34)cc2)C(=O)O1 [Example 92]	2 µg/mL (≈ 5.53 µM)	> 128 µg/mL				
CC(=O)NC[C@H]1CN(c2ccc(-c3ccc(C#N)cc3)cc2)C(=O)O1 [Example 37, (l)-N-[3-(4-(4'-Cyanophenyl)phenyl)-2-oxooxazolidin-5-ylmethyl]acetamide]	0.25 µg/mL (≈ 0.745 µM)	> 128 µg/mL	< 1.2 mg/kg	0.6 mg/kg		
C=C(C)C(=O)c1ccc(-c2ccc(N3C[C@H](CNC(C)=O)OC3=O)cc2)cc1 [Example 63]	0.25 µg/mL (≈ 0.661 µM)	> 128 µg/mL	> 90 mg/kg	> 90 mg/kg		
CC(=O)NC[C@H]1CN(c2ccc(-c3ccno3)cc2)C(=O)O1 [Example 130, (l)-N-[3-[4-(5-Isoxazolyl)phenyl]-2-oxooxazolidin-5-ylmethyl]acetamide]	1 µg/mL (≈ 3.32 µM)	> 128 µg/mL	6 mg/kg	6 mg/kg		
CC(=O)NC[C@H]1CN(c2ccc(-c3cccc[n+]3[O-])cc2)C(=O)O1 [Example 87]	32 µg/mL (≈ 97.8 µM)	> 128 µg/mL	16.1 mg/kg	9.8 mg/kg		
CC(=O)NCC1CN(c2ccc(-c3ccc(N(C)C)cc3)cc2)C(=O)O1 (stereo not drawn) [Example 115]	16 µg/mL (≈ 45.3 µM)	> 128 µg/mL				
CCCCCN(CCCCC)Cc1ccc(-c2ccc(N3C[C@H](CNC(C)=O)OC3=O)cc2)cc1 [Example 47]	0.5 µg/mL (≈ 1.04 µM)	> 128 µg/mL				
CC(=O)NC[C@H]1CN(c2ccc(-c3ccc(C(C)OC(=O)CCC(=O)O)cc3)cc2)C(=O)O1 (stereo partly drawn) [Example 30]					4 µg/mL	9.8 mg/kg
CC(=O)NC[C@H]1CN(c2ccc(-c3ccc(C(C)NN4CCN(C)CC4)cc3)cc2)C(=O)O1 (single isomer, unassigned) [Example 26, (l)-N-[3-(4-(4'-(1-(4-Methylpiperazinylamino)ethyl))phenyl)phenyl-2-oxooxazolidin-5-ylmethyl]acetamide]	1 µg/mL (≈ 2.21 µM)	> 128 µg/mL				
